Assay results from patent publication US10543189B2, “2-acetylnaphtho[2,3-b]furan -4,9-dione for use on treating cancer” (Boston Biomedical, Inc., priority 2013, dated 2020).
Read-outs that look alike come from different tables or passages of the source.

Assays:
cancer cells = assay: Antitumor activity of the compound in patient urine; format: cell-based; conditions: compound in patient urine tested against cancer cells
[1] = Phase 1 extension study of higher strength capsule (DP2A): pharmacokinetics; format: in vivo; conditions: human, plasma, oral, 500 mg; for AUC(0-t): read-out: AUC0-24
Source text: (§1) However, with the higher strength capsules, we observed worsening gastrointestinal adverse effects including nausea, vomiting, and diarrhea in patients.
(§2) Additional studies were run using an oral formulation of the Compound of the Invention, specifically a higher strength capsule formulation (DP2A). As described herein, the Compound of the Invention blocks cancer stem cell (CSC) self-renewal and induces cell death in CSC as well as non-stem cancer cells by inhibiting Stat3, β-catenin, and Nanog pathways, and has shown potent anti-tumor and anti-metastatic activities pre-clinically. […] The studies described herein were designed as a phase 1 extension study to evaluate a formulation designed for pivotal trials to determine pharmacokinetics (PK) in patients with advanced cancer.
(§3) On Day 1, patients received a single 500 mg dose of an oral administration formulation of the Compound of the Invention (DP1). On Day 4 and Day 8, a higher strength capsule designed for pivotal trials (DP2A) was given with fasting then fed conditions. DP2A was then administered daily until disease progression or unacceptable toxicity. Endpoints were safety, PK and preliminary anticancer activity.

[2] = Phase 1 extension study of higher strength capsule (DP2A): adverse events; format: in vivo
Source text: as §1, §2, §3

[3] = Patient 0053, single 500 mg dose - fed
[4] = Patient 0054, single 500 mg dose - fed
[5] = Patient 0061, single 500 mg dose - fed
[6] = Patient 0070, single 500 mg dose - fed
[7] = q 4 h dosing (N = 17), AE possibly related to BBI608

## CC(=O)c1cc2c(o1)C(=O)c1ccccc1C2=O [Compound 1, 2-acetylnaphtho[2,3-b]furan-4,9-dione]
Cancer cells
  antitumor activity in patient urine: remained potent against cancer cells
[1]; [3]
  Cmax: 6.61 µM
  AUC(0-t): 79.6 µM·h
[1]; [4]
  Cmax: 6.25 µM
  AUC(0-t): 49.8 µM·h
[1]; [5]
  Cmax: 1.54 µM
  AUC(0-t): 10.6 µM·h
[1]; [6]
  Cmax: 2.25 µM
  AUC(0-t): 20.1 µM·h
[2]; Patient 0053, at 500 mg bid q4h (gastrointestinal issues)
  AE summary: No significant gastrointestinal
[2]; Patient 0054, at 500 mg bid q4h (gastrointestinal issues)
  AE summary: No significant gastrointestinal
[2]; Patient 0061, fatigue, cramping, diarrhea, and nausea starting at 500 mg bid q4h and persisting at 375 mg/250 mg/250 mg q4h
  AE summary: Intolerable grade 2 fatigue,
[2]; [7]
  Abdominal cramps/pain, Grade 1 or 2, # Subjects: 13
  Abdominal cramps/pain, Grade 1 or 2, %: 76.5%
  Abdominal cramps/pain, Grade 3, # Subjects: 1
  Abdominal cramps/pain, Grade 3, %: 5.9%
  Anorexia, Grade 1 or 2, # Subjects: 10
  Anorexia, Grade 1 or 2, %: 58.8%
  Anorexia, Grade 3, # Subjects: 3
  Anorexia, Grade 3, %: 17.6%
  Bloated abdomen, Grade 1 or 2, # Subjects: 4
  Bloated abdomen, Grade 1 or 2, %: 23.5%
  Bloated abdomen, Grade 3, # Subjects: 0
  Bloated abdomen, Grade 3, %: 0.0%
  Dehydration, Grade 1 or 2, # Subjects: 1
  Dehydration, Grade 1 or 2, %: 5.9%
  Dehydration, Grade 3, # Subjects: 0
  Dehydration, Grade 3, %: 0.0%
  Depression, Grade 1 or 2, # Subjects: 0
  Depression, Grade 1 or 2, %: 0.0%
  Depression, Grade 3, # Subjects: 0
  Depression, Grade 3, %: 0.0%
  Diarrhea, Grade 1 or 2, # Subjects: 14
  Diarrhea, Grade 1 or 2, %: 82.4%
  Diarrhea, Grade 3, # Subjects: 4
  Diarrhea, Grade 3, %: 23.5%
  Dysgusia, Grade 1 or 2, # Subjects: 1
  Dysgusia, Grade 1 or 2, %: 5.9%
  Dysgusia, Grade 3, # Subjects: 0
  Dysgusia, Grade 3, %: 0.0%
  Fatigue/weakness, Grade 1 or 2, # Subjects: 10
  Fatigue/weakness, Grade 1 or 2, %: 58.8%
  Fatigue/weakness, Grade 3, # Subjects: 3
  Fatigue/weakness, Grade 3, %: 17.6%
  Flatulence, Grade 1 or 2, # Subjects: 2
  Flatulence, Grade 1 or 2, %: 11.8%
  Flatulence, Grade 3, # Subjects: 0
  Flatulence, Grade 3, %: 0.0%
  Nausea, Grade 1 or 2, # Subjects: 8
  Nausea, Grade 1 or 2, %: 47.1%
  Nausea, Grade 3, # Subjects: 1
  Nausea, Grade 3, %: 5.9%
  Rectal/Anal Burning, Grade 1 or 2, # Subjects: 3
  Rectal/Anal Burning, Grade 1 or 2, %: 17.6%
  Rectal/Anal Burning, Grade 3, # Subjects: 0
  Rectal/Anal Burning, Grade 3, %: 0.0%
  Reflux (also heartburn), Grade 1 or 2, # Subjects: 1
  Reflux (also heartburn), Grade 1 or 2, %: 5.9%
  Reflux (also heartburn), Grade 3, # Subjects: 0
  Reflux (also heartburn), Grade 3, %: 0.0%
  Urine Color Change, Grade 1 or 2, # Subjects: 2
  Urine Color Change, Grade 1 or 2, %: 11.8%
  Urine Color Change, Grade 3, # Subjects: 0
  Urine Color Change, Grade 3, %: 0.0%
  Vomiting, Grade 1 or 2, # Subjects: 7
  Vomiting, Grade 1 or 2, %: 41.2%
  Vomiting, Grade 3, # Subjects: 0
  Vomiting, Grade 3, %: 0.0%
  Weight loss, Grade 1 or 2, # Subjects: 8
  Weight loss, Grade 1 or 2, %: 47.1%
  Weight loss, Grade 3, # Subjects: 0
  Weight loss, Grade 3, %: 0.0%
  Xerostomia, Grade 1 or 2, # Subjects: 4
  Xerostomia, Grade 1 or 2, %: 23.5%
